Organism: Rattus norvegicus
Assay: Open TG-GATES - Regimen: Single
Format: toxicity, organism-based, Sprague-Dawley
Design: regimen Single, gender Male, age 6 weeks
Settings: in vivo, po, route gavage; for APTT / Bas / Eos / Fbg / Hb / Lym / MCH / MCHC / MCV / Mono / RBC / Ret / WBC: tissue Blood; for KIDNEY_L / KIDNEY_R / KIDNEY_TOTAL: tissue Kidney; for LIVER: tissue Liver; for ALP / ALT / AST / CRE / Ca / Cl / DBIL / GLC / IP / K / LDH / Na / PL / RALB / TBIL / TC / TG / TP / gamma-GTP: tissue Plasma
[1] = 0 mg/kg, 3 h, dose level Control
[2] = 0 mg/kg, 6 h, dose level Control
[3] = 0 mg/kg, 9 h, dose level Control
[4] = 0 mg/kg, 24 h, dose level Control

O=C1CN(/N=C/c2ccc(-c3ccc([N+](=O)[O-])cc3)o2)C(O)=N1 [DANTROLENE]
TERMINAL_BW [1]: 200.3 g
APTT [1]: 16.2 s
Bas [1]: 0%
Eos [1]: 1%
Fbg [1]: 209.6 mg/dL
Hb [1]: 13.4 g/dL
Lym [1]: 82.4%
MCH [1]: 22.9 pg
MCHC [1]: 34.6%
MCV [1]: 66.2 fL
Mono [1]: 5.6%
RBC [1]: 586.4 x10_4/ul
Ret [1]: 10.7%
WBC [1]: 134.1 x10_2/uL
KIDNEY_L [1]: 1 g
KIDNEY_R [1]: 1 g
KIDNEY_TOTAL [1]: 1.9 g
LIVER [1]: 9.3 g
ALP [1]: 876.8 IU/L
ALT [1]: 36.2 IU/L
AST [1]: 69.2 IU/L
CRE [1]: 0.5 mg/dL
Ca [1]: 10.6 mg/dL
Cl [1]: 103.8 meq/L
DBIL [1]: 0.058 mg/dL
GLC [1]: 194.2 mg/dL
IP [1]: 8.7 mg/dL
K [1]: 4.7 meq/L
LDH [1]: 92.8 IU/L
Na [1]: 139.6 meq/L
PL [1]: 134.8 mg/dL
RALB [1]: 3.6 g/dL
TBIL [1]: 0.3 mg/dL
TC [1]: 75 mg/dL
TG [1]: 47 mg/dL
TP [1]: 5.3 g/dL
gamma-GTP [1]: 2.2 IU/L
TERMINAL_BW [2]: 201.9 g
APTT [2]: 16.6 s
Bas [2]: 0%
Eos [2]: 1%
Fbg [2]: 205 mg/dL
Hb [2]: 13.3 g/dL
Lym [2]: 77.4%
MCH [2]: 22.6 pg
MCHC [2]: 34.6%
MCV [2]: 65.4 fL
Mono [2]: 9.2%
RBC [2]: 588 x10_4/ul
Ret [2]: 13.2%
WBC [2]: 107.2 x10_2/uL
KIDNEY_L [2]: 1 g
KIDNEY_R [2]: 0.9 g
KIDNEY_TOTAL [2]: 1.9 g
LIVER [2]: 9.3 g
ALP [2]: 689.6 IU/L
ALT [2]: 32.6 IU/L
AST [2]: 59.6 IU/L
CRE [2]: 0.5 mg/dL
Ca [2]: 10.5 mg/dL
Cl [2]: 104.4 meq/L
DBIL [2]: 0.064 mg/dL
GLC [2]: 196.4 mg/dL
IP [2]: 9.5 mg/dL
K [2]: 4.7 meq/L
LDH [2]: 82.2 IU/L
Na [2]: 140 meq/L
PL [2]: 135.2 mg/dL
RALB [2]: 3.5 g/dL
TBIL [2]: 0.3 mg/dL
TC [2]: 79.8 mg/dL
TG [2]: 58.2 mg/dL
TP [2]: 5.3 g/dL
gamma-GTP [2]: 1.2 IU/L
TERMINAL_BW [3]: 195.9 g
APTT [3]: 17.1 s
Bas [3]: 0%
Eos [3]: 1%
Fbg [3]: 200.6 mg/dL
Hb [3]: 13 g/dL
Lym [3]: 76.4%
MCH [3]: 21.5 pg
MCHC [3]: 33.1%
MCV [3]: 64.9 fL
Mono [3]: 9.8%
RBC [3]: 605.8 x10_4/ul
Ret [3]: 10.2%
WBC [3]: 98.6 x10_2/uL
KIDNEY_L [3]: 0.9 g
KIDNEY_R [3]: 0.9 g
KIDNEY_TOTAL [3]: 1.8 g
LIVER [3]: 8 g
ALP [3]: 881.6 IU/L
ALT [3]: 33.4 IU/L
AST [3]: 73.2 IU/L
CRE [3]: 0.5 mg/dL
Ca [3]: 10.1 mg/dL
Cl [3]: 107.6 meq/L
DBIL [3]: 0.084 mg/dL
GLC [3]: 200.2 mg/dL
IP [3]: 10.4 mg/dL
K [3]: 4.9 meq/L
LDH [3]: 80.2 IU/L
Na [3]: 140 meq/L
PL [3]: 127.2 mg/dL
RALB [3]: 3.6 g/dL
TBIL [3]: 0.4 mg/dL
TC [3]: 73.2 mg/dL
TG [3]: 21.2 mg/dL
TP [3]: 5.1 g/dL
gamma-GTP [3]: 1.6 IU/L
TERMINAL_BW [4]: 212.6 g
APTT [4]: 17.5 s
Bas [4]: 0%
Eos [4]: 1.2%
Fbg [4]: 207.4 mg/dL
Hb [4]: 13.2 g/dL
Lym [4]: 76.6%
MCH [4]: 21.9 pg
MCHC [4]: 33.7%
MCV [4]: 64.9 fL
Mono [4]: 9.4%
RBC [4]: 602.2 x10_4/ul
Ret [4]: 12.5%
WBC [4]: 91.9 x10_2/uL
KIDNEY_L [4]: 1 g
KIDNEY_R [4]: 1 g
KIDNEY_TOTAL [4]: 2 g
LIVER [4]: 10.2 g
ALP [4]: 993.6 IU/L
ALT [4]: 33.8 IU/L
AST [4]: 63.8 IU/L
CRE [4]: 0.5 mg/dL
Ca [4]: 10.9 mg/dL
Cl [4]: 105.6 meq/L
DBIL [4]: 0.012 mg/dL
GLC [4]: 198.4 mg/dL
IP [4]: 8 mg/dL
K [4]: 4.7 meq/L
LDH [4]: 80.6 IU/L
Na [4]: 141.6 meq/L
PL [4]: 144.2 mg/dL
RALB [4]: 3.7 g/dL
TBIL [4]: 0.4 mg/dL
TC [4]: 73.8 mg/dL
TG [4]: 91.6 mg/dL
TP [4]: 5.5 g/dL
gamma-GTP [4]: 1.8 IU/L
TERMINAL_BW (25 mg/kg, 3 h, dose level Low): 196.9 g
APTT (25 mg/kg, 3 h, dose level Low): 16.9 s
